Measurements: patent US20100212031A1, “Method for improving efficiencies in livestock production” (priority 2002, published 2010)
Where “and” joins values, the source holds several entries; their conditions need not be identical. Identical values can stand only once. Marks after values point to notes of the source that are not given here.

Tests used:
[1] = administration of exogenous leptin; mice, chickens, pigs and sheep; cited from earlier work
[2] = Test 4 / Group 3 feedlot study: body weight growth of steers by leptin (ob) genotype and drug status; assay type: in vivo, cattle (steers of mixed breed); conditions: Drug group; for BW, lbs d 1: 1st measure; for BW, lbs d 1 / BW, lbs d 2 / BW, lbs d 3: before drug; for BW, lbs d 2: 2nd measure; for BW, lbs d 3: 3rd measure; for BW, lbs d 4: 4th measure, after drug
Experimental: (§1) In test 4, 4172 hd of animals randomized to treatment and pen were housed in 48 pens, such that a study was conducted to assess the effect of ob genotype on fat growth, body weight growth, and carcass parameters; as well as any potential interaction with the beta andrenergic agonist Zilpaterol. […] 7.89 mm in the CT animals, and 7.63 mm in CC animals; with an overall statistical genotype effect of P=0.01. […] 494.6 lbs for CT animals, and 479.5 lbs for the CC animals; with an overall statistical genotype effect of P<0.01. Also importantly, the rate of fat change over time depended on ob genotype (Table 2).
(§2) Three groups of cattle were used to evaluate the effect of leptin genotype on back fat measurements in beef cattle. Originally two groups of cattle were fed and managed with the objective of evaluating the effect of a nutritional treatment on backfat measures and were randomly assigned to dietary treatment. The third experiment was fed and managed with the objective to evaluate 1) the effect the ob gene genotype on carcass parameters, 2) the effect of ob genotype on fat growth in the live animal, and 3) any potential interaction between the beta andrenergic agonist Zilpaterol Hydrochloride and ob genotype. The original experimental design for group 1 & 2 was a randomized complete block design (RCBD) with steers being randomly assigned to block, or experimental pen, dietary treatment was included in the final statistical model detailed below. […] Group 1 was composed of 319 steers and was of mixed breed, and of either European or British descent without any representation of Bos indicus bloodlines. The breeds represented in Group 1 were Hereford, Angus, Charolais, Simmental, and Limousin. The second group included 157 Charolais cross steers. All the cattle entered the finishing period when body weight was approximately 385 kg. Group 3 was composed of 4172 steers of mixed breed, and all cattle within a block were slaughtered on a single day.
Backfat was analyzed with repeated measurements at 1, 55 and 139 days on feed for Group 1, 69, 111, and 120 days on feed for Group 2, and 1, 60, 104, and 129 days on feed for Group 3 using the MIXED procedure of SAS (Wang and Goodewardene, 2004). The following model was used: […]=μ+ρi+αj+λκ+βl+(αβ)jl+(λβ)kl+eijkl. Where Yijkl is the observation for the jth treatment ration or drug status within the ith block at the kth measurement, μ is the overall mean, ρi is the fixed effect of the ith block, aj is the fixed effect of the jth treatment ration, λk is the fixed effect of the kth measurement, βl is the fixed effect for leptin genotype (GENO) and eijkl, is the normally identical and independently distributed error term. The interaction between leptin genotype and diet, (αβ)jl, and time of measurement (λβ)kl, was also tested. A heterogeneous autoregressive-one covariance structure was utilized in analysis of backfat. Least square means and standard errors for body weight and back fat were determined using the ESTIMATE statement in PROC MIXED. The SLICE option was used to estimate least square means of GENO on days of measurements with the DIFF option being used to detect differences. Significance for the main effect of GENO and pairwise comparisons was declared at P<0.05 and trends are noted P<0.10. […] Within each group of cattle retrospective exponential models were fitted to the longitudinal measurements of back fat as described by Brethour (2000). The NLIN procedure of SAS was used to fit the nonlinear exponential function Y=Ae^(kt), where Y=projected backfat, A=the initial backfat, k=rate of increase, and t=time in days.
In test 4, 4172 hd of animals randomized to treatment and pen were housed in 48 pens, such that a study was conducted to assess the effect of ob genotype on fat growth, body weight growth, and carcass parameters; as well as any potential interaction with the beta andrenergic agonist Zilpaterol. […]

[3] = Test 4 / Group 3 feedlot study: backfat by serial ultrasound, steers by leptin (ob) genotype and drug status; assay type: in vivo, cattle (steers of mixed breed); conditions: Drug group; for Backfat, mm d 1: 1st measure (1 days on feed); for Backfat, mm d 1 / Backfat, mm d 2 / Backfat, mm d 3: before drug; for Backfat, mm d 2: 2nd measure (60 days on feed); for Backfat, mm d 3: 3rd measure (104 days on feed); for Backfat, mm d 4: 4th measure (129 days on feed), after drug; for d to 10 mm (days needed to reach target backfat) / d to 12 mm (days needed to reach target backfat) / d to 14 mm (days needed to reach target backfat): from fitted model; for Rate (k, rate of backfat; fitted nonlinear parameter): model Y = 3.88e^kt, animal as experimental unit
Experimental: as §1, §2
Backfat was measured after 1, 55 and 139 days on feed for Group 1, 69, 111, and 120 days on feed for Group 2, and 1, 60, 104, and 129 days on feed for Group 3 using an Aloka 500V diagnostic ultrasound unit equipped with a 17.2 cm, 3.5 MHz linear array transducer (Overseas Monitor Corporation, Ltd., Richmond, B.C.) following the procedure described by Perkins et al., (1992). Internal calipers of the ultrasounds unit were used to measure back fat. Ultrasound images were recorded on a VHS tale (Panasonic AG-5200; Matsushita Electric of Canada, Mississauga, ON).
Backfat was analyzed with repeated measurements at 1, 55 and 139 days on feed for Group 1, 69, 111, and 120 days on feed for Group 2, and 1, 60, 104, and 129 days on feed for Group 3 using the MIXED procedure of SAS (Wang and Goodewardene, 2004). The following model was used: […]=μ+ρi+αj+λκ+βl+(αβ)jl+(λβ)kl+eijkl. Where Yijkl is the observation for the jth treatment ration or drug status within the ith block at the kth measurement, μ is the overall mean, ρi is the fixed effect of the ith block, aj is the fixed effect of the jth treatment ration, λk is the fixed effect of the kth measurement, βl is the fixed effect for leptin genotype (GENO) and eijkl, is the normally identical and independently distributed error term. The interaction between leptin genotype and diet, (αβ)jl, and time of measurement (λβ)kl, was also tested. A heterogeneous autoregressive-one covariance structure was utilized in analysis of backfat. Least square means and standard errors for body weight and back fat were determined using the ESTIMATE statement in PROC MIXED. The SLICE option was used to estimate least square means of GENO on days of measurements with the DIFF option being used to detect differences. Significance for the main effect of GENO and pairwise comparisons was declared at P<0.05 and trends are noted P<0.10. […]

In the case of “leptin: 16-kDa adipocyte-specific polypeptide encoded by the ob (obese) gene”, the body mass [1] is given as “dramatically reduces” and the feed intake [1] is given as “dramatically reduces”.
In the case of `CC(C)N[C@@H]1CCn2c(=O)[nH]c3cccc(c32)[C@H]1O.Cl` (racemic) [Drug, Zilpaterol Hydrochloride], the “ADG, lbs/d (Average daily live bodyweight gain in pounds)” value (shortened to “ADG, lbs/d”) ([2]; CC Genotype) is reported as 3.51 lbs/d, the “BWCH, lbs: Body weight change before and after drug, difference between 3rd and 4th measure” value ([2]; CC Genotype) is reported as 72.1 lbs and the “BWCH, lbs: Body weight change, difference between 1st and 4th measure” value ([2]; CC Genotype) is reported as 500.5 lbs. For the same compound, the “BW, lbs d 1” value ([2]; CC Genotype) was 893.4 lbs, the “BW, lbs d 2” value ([2]; CC Genotype) was 1181.1 lbs and the “BW, lbs d 3” value ([2]; CC Genotype) was 1325.0 lbs. The “BW, lbs d 4” value ([2]; CC Genotype) was 1394.8 lbs, the “ADG, lbs/d” value ([2]; CT Genotype) was 3.64 lbs/d and the “BWCH, lbs: Body weight change before and after drug, difference between 3rd and 4th measure” value ([2]; CT Genotype) was 93.8 lbs. For the same compound, the “BWCH, lbs: Body weight change, difference between 1st and 4th measure” value ([2]; CT Genotype) was 518.9 lbs, the “BW, lbs d 1” value ([2]; CT Genotype) was 890.3 lbs and the “BW, lbs d 2” value ([2]; CT Genotype) was 1197.3 lbs. The “BW, lbs d 3” value ([2]; CT Genotype) was 1317.1 lbs, the “BW, lbs d 4” value ([2]; CT Genotype) was 1407.6 lbs and the “ADG, lbs/d” value ([2]; TT Genotype) was 3.60 lbs/d. For the same compound, the “BWCH, lbs: Body weight change before and after drug, difference between 3rd and 4th measure” value ([2]; TT Genotype) was 75.8 lbs, the “BWCH, lbs: Body weight change, difference between 1st and 4th measure” value ([2]; TT Genotype) was 512.4 lbs and the “BW, lbs d 1” value ([2]; TT Genotype) was 890.6 lbs. For the same compound, the “BW, lbs d 2” value ([2]; TT Genotype) was 1191.9 lbs, the “BW, lbs d 3” value ([2]; TT Genotype) was 1330.0 lbs and the “BW, lbs d 4” value ([2]; TT Genotype) was 1399.0 lbs. The “AFG, mm/d (Average Daily fat gain in millimeters)” value (from here on “AFG, mm/d”) ([3]; CC Genotype) was 0.051 mm/d, the “Fat CH, mm: Backfat change before and after drug, difference between 3rd and 4th measure” value ([3]; CC Genotype) was 1.24 mm and the “Fat CH, mm: Backfat change, difference between 1st and 4th measure” value ([3]; CC Genotype) was 7.30 mm. For the same compound, the “Rate, 10-12” value ([3]; CC Genotype) was 0.0071, the “Backfat, mm d 1” value ([3]; CC Genotype) was 3.46 mm and the “Backfat, mm d 2” value ([3]; CC Genotype) was 7.44 mm. The “Backfat, mm d 3” value ([3]; CC Genotype) was 9.60 mm, the “Backfat, mm d 4” value ([3]; CC Genotype) was 10.7 mm and the “d to 10 mm (days needed to reach target backfat)” value (from here on “d to 10 mm”) ([3]; CC Genotype) was 144 days. For the same compound, the “d to 12 mm (days needed to reach target backfat)” value (shortened to “d to 12 mm”) ([3]; CC Genotype) was 170 days, the “d to 14 mm (days needed to reach target backfat)” value (“d to 14 mm” below) ([3]; CC Genotype) was 192 days and the “Rate (k, rate of backfat; fitted nonlinear parameter)” value ([3]; CC Genotype) was 0.0069^a. The “AFG, mm/d” value ([3]; CT Genotype) was 0.053 mm/d, the “Fat CH, mm: Backfat change before and after drug, difference between 3rd and 4th measure” value ([3]; CT Genotype) was 1.35 mm and the “Fat CH, mm: Backfat change, difference between 1st and 4th measure” value ([3]; CT Genotype) was 7.56 mm. The “Rate, 10-12” value ([3]; CT Genotype) was 0.0072, the “Backfat, mm d 1” value ([3]; CT Genotype) was 3.50 mm and the “Backfat, mm d 2” value ([3]; CT Genotype) was 7.74 mm. The “Backfat, mm d 3” value ([3]; CT Genotype) was 9.77 mm, the “Backfat, mm d 4” value ([3]; CT Genotype) was 11.0 mm and the “d to 10 mm” value ([3]; CT Genotype) was 135 days. The “d to 12 mm” value ([3]; CT Genotype) was 160 days, the “d to 14 mm” value ([3]; CT Genotype) was 182 days and the “Rate (k, rate of backfat; fitted nonlinear parameter)” value ([3]; CT Genotype, Hydrochloride) was 0.0077^1 and 0.0071^1. For the same compound, the “AFG, mm/d” value ([3]; TT Genotype) was 0.054 mm/d, the “Fat CH, mm: Backfat change before and after drug, difference between 3rd and 4th measure” value ([3]; TT Genotype) was 1.17 mm and the “Fat CH, mm: Backfat change, difference between 1st and 4th measure” value ([3]; TT Genotype) was 7.71 mm. The “Rate, 10-12” value ([3]; TT Genotype) was 0.0073, the “Backfat, mm d 1” value ([3]; TT Genotype) was 3.62 mm and the “Backfat, mm d 2” value ([3]; TT Genotype) was 7.98 mm. For the same compound, the “Backfat, mm d 3” value ([3]; TT Genotype) was 10.26 mm, the “Backfat, mm d 4” value ([3]; TT Genotype) was 11.3 mm and the “d to 10 mm” value ([3]; TT Genotype) was 126 days. The “d to 12 mm” value ([3]; TT Genotype) was 151 days, the “d to 14 mm” value ([3]; TT Genotype) was 173 days and the “Rate (k, rate of backfat; fitted nonlinear parameter)” value ([3]; TT Genotype) was 0.0075^bc.
